Reference: patent US20250340548A1, “KRAS G12C INHIBITORS” (Frontier Medicines Corporation, priority 2021, published 2025)

Molecular target: T1, KRAS G12C and cRAF (Homo sapiens, UniProt P01116, C118S/C51S/C80L/G12C)
T1 construct: truncated version comprising amino acids 1-169
Assay: AlphaScreen inhibition of KRAS G12C (GMPPNP-loaded) and cRAF RBD binding
Format: biochemical
Conditions: KRAS G12C preloaded with GMPPNP, 0.5 nM KRAS G12C, 0.75 nM RBD, 19-20 h compound incubation, room temperature
From the text: The ability of compounds of Formula (I), Formula (I-1), Formula (I-2), Formula (II), Formula (II-1) and Formula (II-2), and pharmaceutically acceptable salts and/or isotopologues thereof, to inhibit activity of the GTP-bound form of KRAS G12C can be tested using methods such as the in vitro assay described in Examples 308 and 309 below. Example 308 describes determining, for various compounds, the half-maximal inhibition (IC50) of KRAS G12C loaded with GTP analogue GMPPNP from binding to cRaf, as the Ras-binding domain (RBD). […]
The AlphaScreen technology was used to determine IC50S for compound inhibition of KRAS G12C (present as the Cys-light (C51S, C80L and C118S), truncated version comprising amino acids 1-169) and cRAF interaction. […] A mixture of RBD and the AlphaScreen streptavidin donor and glutathione acceptor beads diluted in 25 mM Hepes, pH 7.4, 150 mM NaCl, 5 mM MgCl2, 0.01% TritonX-100 and 2% DMSO was then added at 10 ul/well and incubated for 60-90 minutes before the samples were read for emission at 570 nm after excitation of the donor beads at 680 nm. […] IC50S were determined using nonlinear regression fit of [inhibitor]vs. response (4 parameters).
A counter assay was also set up to rule out inhibitors of the AlphaScreen technology itself. […] Samples were read and analyzed as above.

T1 sequence (P01116 1-169 isoform P01116-2 G12C/C51S/C80L/C118S): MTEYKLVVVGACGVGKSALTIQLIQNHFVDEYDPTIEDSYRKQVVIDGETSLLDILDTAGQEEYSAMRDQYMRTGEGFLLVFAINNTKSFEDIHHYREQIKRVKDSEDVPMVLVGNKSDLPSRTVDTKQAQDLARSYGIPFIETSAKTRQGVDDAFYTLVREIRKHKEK

IC50: < 10 nM
Compound: Cc1noc(/C=C/C(=O)N2CC(CN(C)c3nc(OC[C@@]45CCCN4C[C@H](F)C5)nc4c(F)c(-c5cc(O)cc6cccc(Cl)c56)ncc34)C2)n1 [Example 98, (E)-1-(3-(((7-(8-chloro-3-hydroxynaphthalen-1-yl)-8-fluoro-2-(((2R,7aS)-2-fluorotetrahydro-1H-pyrrolizin-7a(5H)-yl)methoxy)pyrido[4,3-d]pyrimidin-4-yl)(methyl)amino)methyl)azetidin-1-yl)-3-(3-methyl-1,2,4-oxadiazol-5-yl)prop-2-en-1-one]
